pIC50: −log10 of the molar value. Read-outs that look alike come from different tables or passages of the source. Marks after values point to notes of the source that are not given here. Where a SMILES comes first, the peptide text is derived from it.
What was measured:
Type in all cases: binding
[1] = biological target: cholera toxin B subunit (CTB); ligand LOSGM1 (Vibrio cholerae serotype O1, UniProt P01556)
[2] = biological target: cholera toxin B subunit (CTB); ligand GM1 (Vibrio cholerae serotype O1, UniProt P01556)
Sequence of cholera toxin B subunit (CTB); ligand GM1 (P01556 22-124 limits assumed): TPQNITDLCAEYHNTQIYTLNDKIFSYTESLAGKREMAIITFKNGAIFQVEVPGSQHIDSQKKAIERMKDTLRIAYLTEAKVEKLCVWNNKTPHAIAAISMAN

[3] = test system: rabbit anti-GM1 antibodies (AbGM1); details: for Inhibition percent at IC50 AbGM1-1: AbGM1-3 / Inhibition percent at IC50 AbGM1-1: AbeGM1-4 / Inhibition percent at IC50 AbGM1-1: AbGM1-1 / Inhibition percent at IC50AbGM1-1: GM1/AbGM1-1 / Inhibition percent at IC50 AbGM1-1: AbGM1-5 / Inhibition percent at IC50 AbGM1-1: AbGM1-2: peptide at its IC50 AbGM1-1; for Inhibition percent at IC50 AbGM1-1: AbGM1-3: antibody lot # 101J; for Inhibition percent at IC50 AbGM1-1: AbeGM1-4: antibody lot # 104H; for Inhibition percent at IC50 AbGM1-1: AbGM1-1: antibody lot # 431A, means of 4 values; for pIC50: AbGM1-1 lot # 431A
[4] = test system: AbGM4 (GM4/AbGM4); details: lot # GMR6; for Inhibition percent at IC50AbGM1-1: GM4/AbGM4: peptide at its IC50 AbGM1-1
[5] = test system: AbGM2 (GM2/AbGM2); details: lot # D710-2; for Inhibition percent at IC50AbGM1-1: GM2/AbGM2: peptide at its IC50 AbGM1-1
[6] = biological target: cholera toxin B subunit (CTB); ligand fucosyl-GM1 (F-GM1) (Vibrio cholerae serotype O1, UniProt P01556)
Sequence of cholera toxin B subunit (CTB); ligand fucosyl-GM1 (F-GM1) (P01556 22-124 limits assumed): as above

[7] = test system: AbSGPG (SGPG/AbSGPG); details: lot # D710-5; for Inhibition percent at IC50AbGM1-1: SGPG/AbSGPG: peptide at its IC50 AbGM1-1
[8] = test system: AbGD1a (GD1a/AbGD1a); details: lot # 109H; for Inhibition percent at IC50AbGM1-1: GD1a/AbGD1a: peptide at its IC50 AbGM1-1
[9] = biological target: cholera toxin B subunit (CTB); ligand GD1b (Vibrio cholerae serotype O1, UniProt P01556)
Sequence of cholera toxin B subunit (CTB); ligand GD1b (P01556 22-124 limits assumed): as above

[10] = test system: AbF-GM1 (F-GM1/AbF-GM1); details: lot # G351; for Inhibition percent at IC50AbGM1-1: F-GM1/AbF-GM1: peptide at its IC50 AbGM1-1
[11] = biological target: cholera toxin B subunit (CTB); ligand Lipid AP (Vibrio cholerae serotype O1, UniProt P01556)
Sequence of cholera toxin B subunit (CTB); ligand Lipid AP (P01556 22-124 limits assumed): as above

[12] = test system: AbGD1b (GD1b/AbGD1b); details: lot # D710-6; for Inhibition percent at IC50AbGM1-1: GD1b/AbGD1b: peptide at its IC50 AbGM1-1
[13] = test system: AbGD3 (GD3/AbGD3); details: peptide at its IC50 AbGM1-1; lot # R24
[14] = treatment with 500 pmol/mL of PGM1-2
[15] = antibody lot # 105T, dilution 1:500
[16] = antibody lot # 431B, dilution 1:500

Sequence of cholera toxin B subunit (CTB); ligand LOSGM1 (P01556 22-124 limits assumed): as above

Compound	Inhibition percent at IC50 GM1: LOSGM1 [1]	IC50 GM1 [2]	Inhibition percent at IC50 GM1: GM1 [2]	Inhibition percent at IC50 AbGM1-1: AbGM1-3 ([3]; dilution 1:500)	Inhibition percent at IC50 AbGM1-1: AbeGM1-4 ([3]; dilution 1:500)	Inhibition percent at IC50 AbGM1-1: AbGM1-1 ([3]; dilution 1:500)	Inhibition percent at IC50 GM1: F-GM1 [6]	Inhibition percent at IC50 GM1: GD1b [9]	Inhibition percent at IC50 GM1: Lipid AP [11]	pIC50 ([3]; Table 4, dilution 1:500)	pIC50 ([3]; Table 5)	Inhibition percent at IC50AbGM1-1: GM1/AbGM1-1 ([3]; Table 5, lot # 431A)	Inhibition percent at IC50 AbGM1-1: AbGM1-5 [3, 15]	Inhibition percent at IC50 AbGM1-1: AbGM1-2 [3, 16]	Inhibition percent at IC50AbGM1-1: GD3/AbGD3 [13]	Inhibition percent at IC50AbGM1-1: GM4/AbGM4 [4]	Inhibition percent at IC50AbGM1-1: GM2/AbGM2 [5]	Inhibition percent at IC50AbGM1-1: SGPG/AbSGPG [7]	Inhibition percent at IC50AbGM1-1: GD1a/AbGD1a [8]	Inhibition percent at IC50AbGM1-1: F-GM1/AbF-GM1 [10]	other results
CSCC[C@H](NC(=O)[C@H](CO)NC(=O)[C@@H]1CCCN1C(=O)[C@H](Cc1ccccc1)NC(=O)[C@H](Cc1c[nH]c2ccccc12)NC(=O)[C@H](CCCCN)NC(=O)[C@H](Cc1c[nH]cn1)NC(=O)[C@H](Cc1ccccc1)NC(=O)[C@@H]1CCCN1C(=O)[C@H](CO)NC(=O)[C@@H](N)Cc1ccc(O)cc1)C(=O)N[C@@H](Cc1c[nH]cn1)C(=O)O [PGM1-2, YSPFHKWFPSMH] (H-YSPFHKWFPSMH-OH; N-terminus and C-terminus assumed)	47.9%	46.1 nM	50%	65.7^a percent	15.1^a percent	0^a percent	52.1%	21.9%	0%												Inhibition percent: GM1/AbGM1-1 ([3]; Table 5, treatment with 500 pmol/mL of PGM1-2, lot # 431A): 0^b percent; Inhibition percent: AbGM1-5 ([3]; treatment with 500 pmol/mL of PGM1-2, antibody lot # 105T, dilution 1:500): 0^b percent; Inhibition percent: AbGM1-2 ([3]; treatment with 500 pmol/mL of PGM1-2, antibody lot # 431B, dilution 1:500): 32.1^b percent; Inhibition percent: GM4/AbGM4 [4, 14]: 0^b percent; Inhibition percent: GM2/AbGM2 [5, 14]: 0^b percent; Inhibition percent: SGPG/AbSGPG [7, 14]: 0^b percent; Inhibition percent: GD1a/AbGD1a [8, 14]: 0^b percent; Inhibition percent: F-GM1/AbF-GM1 [10, 14]: 0^b percent; Inhibition percent: GD1b/AbGD1b [12, 14]: 23.6^b percent
CC(C)C[C@H](NC(=O)[C@H](CC(N)=O)NC(=O)[C@@H]1CCCN1C(=O)[C@H](Cc1ccccc1)NC(=O)[C@H](Cc1c[nH]c2ccccc12)NC(=O)[C@@H](NC(=O)[C@H](CCCCN)NC(=O)[C@H](Cc1c[nH]c2ccccc12)NC(=O)[C@H](CO)NC(=O)[C@@H](N)C(C)C)[C@@H](C)O)C(=O)N[C@@H](C)C(=O)N[C@H](C(=O)O)C(C)C [PGM1-1, VSWKTWFPNLAV] (H-VSWKTWFPNLAV-OH; N-terminus and C-terminus assumed)	50.8%	38.0 nM		0%	72.1%	50^a percent	45.8%	39.9%	0%	6.56	6.56	50^b percent	44.6%	27.1%	0%	0%	11.2%	0%	0%	42.1%	Inhibition percent at IC50AbGM1-1: GD1b/AbGD1b [12]: 32.1%
DASKALRSSGMP [PGM1-6]			0%	0%	55.1%	50%				6.53	6.53	50%	18.7%	45.1%	0%	0%	0%	0%	0%	23.4%	Inhibition percent: LOSGM1 [1]: 0^d percent; Inhibition percent: F-GM1 [6]: 0^d percent; Inhibition percent: GD1b [9]: 0^d percent; Inhibition percent: Lipid AP [11]: 0^d percent; Inhibition percent at IC50AbGM1-1: GD1b/AbGD1b [12]: 8.9%
CC[C@H](C)[C@H](N)C(=O)N1CCC[C@H]1C(=O)N[C@@H](CCC(N)=O)C(=O)N[C@H](C(=O)N[C@@H](Cc1c[nH]c2ccccc12)C(=O)N[C@@H](CCCNC(=N)N)C(=O)N[C@@H](CC(=O)O)C(=O)N[C@@H](Cc1c[nH]c2ccccc12)C(=O)N[C@@H](Cc1ccccc1)C(=O)N[C@@H](CCCCN)C(=O)N[C@@H](CC(C)C)C(=O)N1CCC[C@H]1C(=O)O)C(C)C [PGM1-3, IPQVWRDWFKLP] (H-IPQVWRDWFKLP-OH)	52.1%	9.6 nM	50%	42.5%	30.3%	50%	43.9%	37.9%	0%	7.12	7.12	50%	59.1%	62.1%	0%	0%	0%	0%	0%	0%	Inhibition percent at IC50AbGM1-1: GD1b/AbGD1b [12]: 0%
CC[C@H](C)[C@H](NC(=O)[C@@H](N)CCC(N)=O)C(=O)N[C@@H](CC(N)=O)C(=O)N[C@H](C(=O)N[C@@H](C)C(=O)N[C@@H](CCCCN)C(=O)N[C@@H](Cc1c[nH]c2ccccc12)C(=O)N[C@@H](Cc1c[nH]c2ccccc12)C(=O)N[C@@H](CCCCN)C(=O)N[C@H](C(=O)N[C@@H](Cc1c[nH]cn1)C(=O)N[C@@H](Cc1ccccc1)C(=O)O)[C@@H](C)O)[C@@H](C)O [PGM1-5, QINTAKWWKTHF] (H-QINTAKWWKTHF-OH)	50.0%	34.4 nM	50%	12.1%	0%	50%	52.1%	39.8%	0%	6.32	6.32	50%	32.9%	0%	0%	0%	6.5%	0%	0%	0%	Inhibition percent at IC50AbGM1-1: GD1b/AbGD1b [12]: 0%

From patent US8877161B2 (priority 2011, dated 2014)
